We go through 18 molecules from patent US4535075A, “Dithiolane derivative, process for producing the same and use thereof” (Nihon Nohyaku Co., Ltd., priority 1982, dated 1985).

The first assay concerns liver damage induced by carbon tetrachloride. Put plainly: Protective (Controlling) effect on liver damage induced by carbon tetrachloride. The format is in vivo, mice (dd strain). The following applies: 250 mg/kg p.o., CCl4 0.05 ml/kg after 6 h, 24 h; CCl4 alone >2,100. An excerpt:
Protective (Controlling) Effect on liver damage induced by carbon tetrachloride.
Carbon tetrachloride administration induces centrilobular necrosis of the liver associated with loss of diphosphopyridine nucleotide, hepatic glycogen, coenzyme A and increase in neutral fat. Release of several enzymes from the hepatocytes, and increases of enzyme activities in the plasma are recognized as the result of the damage of the liver.
A suitable means for evaluating the degree induced by carbon tetrachloride or the degree of protection afforded by drugs is to study the plasma glutamic-pyruvic transaminase (p-GPT) activity. […]
After 6 hours, carbon tetrachloride was administered orally 0.05 ml/kg.
Animals were killed 24 hours after carbon tetrachloride administration, and the liver was grossly observed.
The plasma was obtained by centrifugation. Activity of p-GPT were determined by the method of Reitman and Frankel and expressed in Karmen units.
Score for liver damage index was as follows:
1 Each figure indicated average of 5 mice.
For the molecule `CCCOC(=O)C(C(C)=O)=C1SC(OC(=O)N(C)C)C(OC(=O)N(C)C)S1` (centres unmarked) [Compound 65], the p-GPT was 498.7 Karmen units.

Consider `COC(=O)C(C(C)=O)=C1SC2OC(=O)OC2S1` (centres unmarked) [Compound 87], for which the p-GPT was 45.7 Karmen units.

As for `O=C1OC2SC(=C(C(=O)OC3CCCCC3)C(=O)OC3CCCCC3)SC2O1` (centres unmarked) [Compound 82], the p-GPT worked out at 159.7 Karmen units.

`CC(=O)C(C(=O)OCCC(C)C)=C1SC2OC(=O)OC2S1` (centres unmarked) [Compound 96]: the p-GPT stood at 15.4 Karmen units.

In turn, `CCOC(=O)C(C(=O)CC)=C1SC(O)C(O)S1` (centres unmarked) [Compound 49] showed a p-GPT of 23 Karmen units.

As to `O=C1OC2SC(=C(C(=O)OCc3ccccc3)C(=O)OCc3ccccc3)SC2O1` (centres unmarked) [Compound 83], the p-GPT was found to be 105.5 Karmen units.

Consider `CCCCOC(=O)C(C(=O)OCC)=C1SC(O)C(O)S1` (centres unmarked) [Compound 18], for which the p-GPT was 28 Karmen units.

Take `COCC(C)OC(=O)C(C(=O)OC(C)COC)=C1SC(O)C(O)S1` (centres unmarked) [Compound 15, bis(3-methoxypropan-2-yl)4,5-dihydroxy-1,3-dithiolan-2-ylidenemalonate]: the p-GPT was 39 Karmen units.

Consider `CCC(C)OC(=O)C(C(=O)OC(C)CC)=C1SC(OC(C)=O)C(OC(C)=O)S1` (centres unmarked) [Compound 60], for which the p-GPT was 203.0 Karmen units.

In turn, `CCCCOC(=O)C(C(=O)OCCCC)=C1SC(O)C(O)S1` (centres unmarked) [Compound 4] yielded a p-GPT of 18 Karmen units.

On to `CCOC(=O)C(C(=O)CC(C)C)=C1SC(O)C(O)S1` (centres unmarked) [Compound 53], for which the p-GPT worked out at 94 Karmen units.

In turn, `CCCOC(=O)C(C(C)=O)=C1SC(OC(=O)C(C)(C)C)C(OC(=O)C(C)(C)C)S1` (centres unmarked) [Compound 63] gave a p-GPT of 402.6 Karmen units.

For the molecule `CCCOC(=O)C(C(=O)OC(C)C)=C1SC(O)C(O)S1` (centres unmarked) [Compound 20], the p-GPT turned out to be 30 Karmen units.

Molecule `CCCOC(=O)C(C(C)=O)=C1SC(OC(=O)OCC)C(OC(=O)OCC)S1` (centres unmarked) [Compound 67] yielded a p-GPT of 127.7 Karmen units.

For `CCCOC(=O)C(C(=O)OCCC)=C1SC(OC(=O)C(C)(C)C)C(OC(=O)C(C)(C)C)S1` (centres unmarked) [Compound 62], the p-GPT is given as 223.2 Karmen units.

In turn, `CCOC(=O)C(C(=O)OCC)=C1SC2OC(=S)OC2S1` (centres unmarked) [Compound 107] had a p-GPT of 42.6 Karmen units.

`CC(C)OC(=O)C(C(=O)OC(C)C)=C1SC2OC(=O)OC2S1` (centres unmarked) [Compound 75]: the p-GPT worked out at 19.9 Karmen units.

The same assay, now with this note: 250 mg/kg p.o., CCl4 0.05 ml/kg after 6 h, 24 h; average of 5 mice; 0 Normal, 2 Slightly recognized, 4 Clearly observable damage, 6 Heavy damage; CCl4 alone 5.0.
For `CCCOC(=O)C(C(C)=O)=C1SC(OC(=O)N(C)C)C(OC(=O)N(C)C)S1` (centres unmarked) [Compound 65], the “Liver Damage Index” value stood at 1.6.

As for `COC(=O)C(C(C)=O)=C1SC2OC(=O)OC2S1` (centres unmarked) [Compound 87], the “Liver Damage Index” value was 0.6.

Consider `O=C1OC2SC(=C(C(=O)OC3CCCCC3)C(=O)OC3CCCCC3)SC2O1` (centres unmarked) [Compound 82], for which the “Liver Damage Index” value is 0.4.

With `CC(=O)C(C(=O)OCCC(C)C)=C1SC2OC(=O)OC2S1` (centres unmarked) [Compound 96], the “Liver Damage Index” value turned out to be 0.

As to `CCOC(=O)C(C(=O)CC)=C1SC(O)C(O)S1` (centres unmarked) [Compound 49], the “Liver Damage Index” value was 0.4.

Take `O=C1OC2SC(=C(C(=O)OCc3ccccc3)C(=O)OCc3ccccc3)SC2O1` (centres unmarked) [Compound 83]: the “Liver Damage Index” value is 1.2.

As to `CCCCOC(=O)C(C(=O)OCC)=C1SC(O)C(O)S1` (centres unmarked) [Compound 18], the “Liver Damage Index” value turned out to be 0.0.

Turning to `COCC(C)OC(=O)C(C(=O)OC(C)COC)=C1SC(O)C(O)S1` (centres unmarked) [Compound 15, bis(3-methoxypropan-2-yl)4,5-dihydroxy-1,3-dithiolan-2-ylidenemalonate], the “Liver Damage Index” value is reported as 0.0.

For `CCC(C)OC(=O)C(C(=O)OC(C)CC)=C1SC(OC(C)=O)C(OC(C)=O)S1` (centres unmarked) [Compound 60], the “Liver Damage Index” value stood at 0.

Turning to `CCCCOC(=O)C(C(=O)OCCCC)=C1SC(O)C(O)S1` (centres unmarked) [Compound 4], the “Liver Damage Index” value is 0.0.

With `CCOC(=O)C(C(=O)CC(C)C)=C1SC(O)C(O)S1` (centres unmarked) [Compound 53], the “Liver Damage Index” value is reported as 0.8.

With `CCCOC(=O)C(C(C)=O)=C1SC(OC(=O)C(C)(C)C)C(OC(=O)C(C)(C)C)S1` (centres unmarked) [Compound 63], the “Liver Damage Index” value is given as 1.8.

As to `CCCOC(=O)C(C(=O)OC(C)C)=C1SC(O)C(O)S1` (centres unmarked) [Compound 20], the “Liver Damage Index” value is given as 0.4.

As for `CCCOC(=O)C(C(C)=O)=C1SC(OC(=O)OCC)C(OC(=O)OCC)S1` (centres unmarked) [Compound 67], the “Liver Damage Index” value came out at 0.8.

With `CCCOC(=O)C(C(=O)OCCC)=C1SC(OC(=O)C(C)(C)C)C(OC(=O)C(C)(C)C)S1` (centres unmarked) [Compound 62], the “Liver Damage Index” value was determined as 1.2.

As for `CCOC(=O)C(C(=O)OCC)=C1SC2OC(=S)OC2S1` (centres unmarked) [Compound 107], the “Liver Damage Index” value was determined as 0.6.

For the molecule `CC(C)OC(=O)C(C(=O)OC(C)C)=C1SC2OC(=O)OC2S1` (centres unmarked) [Compound 75], the “Liver Damage Index” value is listed as 0.2.

For another assay, the system named is liver damage induced by α-naphthyl isothiocyanate (ANIT). Nature of the assay: Protective effect on liver damage induced by ANIT (Method 1). To be noted: Table 3-1; 2 x 250 mg/kg p.o., ANIT 35 mg/kg p.o., 24 h; control 3.3, ANIT alone 5.3. Format: in vivo, mice. The text has this:
Protective effect on liver damage induced by α-naphthyl isothiocyanate (referred to as "ANIT", hereinafter).
It is well known that experimental cholestasis is accomplished by administration with ANIT in mice and rats, and studied as a cholestasis model in human being.
ANIT and CCl4 induce necrosis in the liver. ANIT causes it as small focci in perilobular parenchyna and CCl4 causes centrilobular parenchymal coagulation necrosis.
From these information, the elevation of plasma GPT activity in these models are thought to have defferent characteristics.
Test compounds, dissolved or suspended in olive oil or diethyleneglycol, were orally administered 2 times at intervals of 3 hrs to mice at the dose of 250 mg/kg. At 3 hrs after the second administration with test compounds, ANIT was administered orally at 35 mg/kg.
Mice were sacrificed at 24 hrs after ANIT administration and blood samples were collected. The blood samples were centrifuged and plasma was obtained.
Plasma GPT activity and alkaline phosphatase activity were determined by Reitman & Frankel's method and Bessey-Lowry's method, respectively. The activity was expressed with Karmen Unit and Bessey-Lowry Unit, respectively.
As for `CCCCOC(=O)C(C(=O)OCC)=C1SC(O)C(O)S1` (centres unmarked) [Compound 18], the Alkaline phosphatase activity was 4.8 B-L.V.

Turning to `CCCCOC(=O)C(C(=O)OCCCC)=C1SC(O)C(O)S1` (centres unmarked) [Compound 4], the Alkaline phosphatase activity is 3.3 B-L.V.

`CCCOC(=O)C(C(=O)OC(C)C)=C1SC(O)C(O)S1` (centres unmarked) [Compound 20] had an Alkaline phosphatase activity of 4.0 B-L.V.

Staying with this assay, now noted: Table 3-1; 2 x 250 mg/kg p.o., ANIT 35 mg/kg p.o., 24 h; control 7.4, ANIT alone 324.0.
The molecule `CCCCOC(=O)C(C(=O)OCC)=C1SC(O)C(O)S1` (centres unmarked) [Compound 18] showed a p-GPT of 180.8 K.U.

`CCCCOC(=O)C(C(=O)OCCCC)=C1SC(O)C(O)S1` (centres unmarked) [Compound 4] showed a p-GPT of 26.8 K.U.

Take `CCCOC(=O)C(C(=O)OC(C)C)=C1SC(O)C(O)S1` (centres unmarked) [Compound 20]: the p-GPT is given as 163.4 K.U.

The same assay, now with this note: Table 3-2; 2 x 250 mg/kg p.o., ANIT 35 mg/kg p.o., 24 h; ANIT alone 5.3.
In the case of `CC(C)OC(=O)C(C(=O)OC(C)C)=C1SCC(O)S1` (centres unmarked) [Compound A, reference compound], the Alkaline phosphatase activity was 8.5 B-L.V.

As for `COCC(C)OC(=O)C(C(=O)OC(C)COC)=C1SC(O)C(O)S1` (centres unmarked) [Compound 15, bis(3-methoxypropan-2-yl)4,5-dihydroxy-1,3-dithiolan-2-ylidenemalonate], the Alkaline phosphatase activity is listed as 3.7 B-L.V.

Still in this assay, the particulars now being: Table 3-2; 2 x 250 mg/kg p.o., ANIT 35 mg/kg p.o., 24 h; ANIT alone >653.7.
In turn, `CC(C)OC(=O)C(C(=O)OC(C)C)=C1SCC(O)S1` (centres unmarked) [Compound A, reference compound] gave a p-GPT greater than 755.0 K.U.

The molecule `COCC(C)OC(=O)C(C(=O)OC(C)COC)=C1SC(O)C(O)S1` (centres unmarked) [Compound 15, bis(3-methoxypropan-2-yl)4,5-dihydroxy-1,3-dithiolan-2-ylidenemalonate] displayed a p-GPT of 134.5 K.U.
